Test results reported in US8962576B2, “Compositions and method for improving endothelial function and cardiovascular health” (Natreon, Inc., priority 2012, dated 2015).
“And” between values parts separate entries of the source, which are not always exact repeats. Identical values can stand only once.

Columns and labels:
Format in all cases: in vivo, human
[1] = test system: Type 2 Diabetic Subjects; experiment: Lipid profile, study (c); conditions: CAPROS 250 mg twice daily, Atorvastatin 10 mg daily, n = 20
From the text: After screening, all the eligible subjects were randomized to receive either one of the four treatments for a duration of 12 weeks, as follows.
All the subjects had undergone complete physical examination, safety lab evaluations at baseline and at the end of the treatment. Samples were collected after an overnight fast of 12 hrs after the last dose of medication for determination of haemoglobin, HbA1c, blood urea and serum creatinine, liver function test, and lipid profile (Total cholesterol (TC), High density lipoprotein cholesterol (HDL-C), low density lipoprotein cholesterol (LDL-C)), and results obtained using appropriate standard techniques.

[2] = test system: platelet aggregation; experiment: Platelet aggregation with ADP, dual channel aggregometer, study (a)
Protocol: Evaluation of Platelet Aggregation.
The platelet aggregation was determined by the following procedure using Wheecon chronologue dual channel platelet aggregometer (Wheecon Instruments Pvt. Ltd., Chemai, Tamilnadu, India). The percentage decrease in platelet aggregation was recorded at baseline and 3 hours post treatment. Approximately 9 ml of blood sample was collected in a 10 ml plastic test tube containing 1 ml of 3.8% Sodium Citrate from the cubital vein of the subject at baseline and after 3 hours post treatment in all the groups. The test was performed immediately within a time period of one and half hours from collection. The samples were centrifuged at 800 rpm for 15 minutes to obtain a platelet-rich plasma. A portion of the same sample was centrifuged at 2500 rpm for 10 minutes so as to get a platelet-poor plasma sample. The aggregometer was switched about 30 minutes before the test to allow the heating block to warm up to 37° C. Then the test was performed in duplicate by taking 0.5 ml of platelet-rich plasma using 5 μl of adenosine di-phosphate (ADP) solution (2 μgm/ml) in cuvettes containing magnetic stir bars. The speed of stir bars were adjusted at 1200 rpm so as to facilitate the aggregation of the platelets. The platelet-poor plasma sample was kept as reference. The readings were recorded at baseline and after treatment with ADP. The percentage aggregation at baseline and the percentage inhibition of platelet aggregation on post treatment with all the four treatments was calculated.

[3] = test system: Type 2 Diabetic Subjects; experiment: Biomarkers of oxidative stress (NO, MDA, Glutathione), study (a); conditions: Sensoril or Capros 250 mg twice daily, Atorvastatin 10 mg at night; for Glutathione / MDA / NO: n = 10
Protocol: […]. (April 2004) 36(2): 76-79. Glutathione levels were determined as described in G. L. Ellman, Arch. Biochem. Biophys. (1959) 82: 70-77 (original determination). Nitric oxide levels were estimated spectrophotometrically as described in Miranda, et al., “A Rapid, Simple Spectrophotometric Method for Simultaneous Detection of Nitrate and Nitrite,” NITRIC OXIDE: Biology and Chemistry (2001) Vol. 5, No. 1, pp. 62-71.

[4] = test system: Type 2 Diabetic Subjects; experiment: Marker of endothelial function: reflection index (RI), study (c); conditions: CAPROS 250 mg twice daily, Atorvastatin 10 mg daily, n = 20
From the text: (§1) A salbutamol (albuterol) challenge test employing digital volume plethysmography was used to assess endothelial function as reported by Chowienczyk et al., “Photoplethysmographic assessment of pulse wave reflection: blunted response to endothelium dependant beta 2-adrenergic vasodilation in type 2 diabetes mellitus,” J. Am. Coll. Cardiol. (1999 December) 34(7):2007-14; and Naidu, et al., “Comparison of two β2 adrenoceptor agonists by different routes of administration to assess human endothelial function,” Indian J. Pharmacol. (2007) 39:168-9. The patients were examined in supine position after 5 minutes of rest. A digital volume pulse (DVP) was obtained using a photo plethysmograph (Pulse Trace PCA2, PT200, Micro Medical, Gallingham, Kent, UK) transmitting infrared light at 940 nm, placed on the index finger of the right hand. The signal from the plethysmograph was digitized using a 12 bit analogue to digital converter with a sampling frequency of 100 Hz. DVP waveforms were recorded over 20 second period and the height of the late systolic/early diastolic portion of the DVP was expressed as a percentage of the amplitude of the DVP to yield the reflection index (RI), per the procedure described in detail by Millasseau et al., “Determination of age related increases in large artery stiffness by digital pulse contour analysis,” Clinical Science (2002) 103: 371-377. Three DVP recordings were taken, and measurements of reflection index (RI) were calculated and the mean value was determined. Patients were then administered 400 μg of salbutamol by inhalation. After 15 minutes three measurements of RI were obtained again and the difference in mean RI before and after administration of salbutamol was used for assessing endothelial function. A change of ≦6% in RI post-salbutamol was considered as endothelial dysfunction.
Study (c) design. […]

[5] = test system: Type 2 Diabetic Subjects; experiment: Endothelial function: reflection index (RI), salbutamol challenge test, study (a); conditions: Sensoril or Capros 250 mg twice daily, Atorvastatin 10 mg at night; for Abs Change in RI(%) Post Salbutamol challenge: n = 10
From the text: Procedure for Assessment of Endothelial Function by Determination of Reflection Index (RI).
as §1

CC(C)c1c(C(=O)Nc2ccccc2)c(-c2ccccc2)c(-c2ccc(F)cc2)n1CC[C@@H](O)C[C@@H](O)CC(=O)O [Atorvastatin]
Absolute change in HDL-C ([1]; 12 weeks): 7.52 ± 7.00 mg/dL | Absolute change in LDL-C ([1]; 12 weeks): -47.48 ± 24.19 mg/dL | Absolute change in Total Cholesterol ([1]; 12 weeks): -48.11 ± 36.87 mg/dL | Absolute change in Triglycerides ([1]; 12 weeks): -48.54 ± 50.09 mg/dL | Absolute change in VLDL-C ([1]; 12 weeks): -5.30 ± 4.70 mg/dL | Mean percentage change in HDL-C ([1]; 12 weeks): 21.16 ± 20.49% | Mean percentage change in LDL-C ([1]; 12 weeks): −35.00 ± 14.34% | Mean percentage change in Total Cholesterol ([1]; 12 weeks): −24.68 ± 14.38% | Mean percentage change in Triglycerides ([1]; 12 weeks): −25.02 ± 25.34% | Mean percentage change in VLDL-C ([1]; 12 weeks): −18.24 ± 17.10% | HDL-C ([1]; Post TT, 12 weeks): 47.95 ± 5.34 mg/dL | LDL-C ([1]; Post TT, 12 weeks): 78.50 ± 16.71 mg/dL | Total Cholesterol ([1]; Post TT, 12 weeks): 135.6 ± 26.94 mg/dL | Triglycerides ([1]; Post TT, 12 weeks): 106.5 ± 30.79 mg/dL | VLDL-C ([1]; Post TT, 12 weeks): 19.90 ± 3.64 mg/dL | HDL-C ([1]; Pre TT): 40.44 ± 6.76 mg/dL | LDL-C ([1]; Pre TT): 126.00 ± 34.90 mg/dL | Total Cholesterol ([1]; Pre TT): 183.7 ± 37.41 mg/dL | Triglycerides ([1]; Pre TT): 155.0 ± 56.51 mg/dL | VLDL-C ([1]; Pre TT): 25.20 ± 6.57 mg/dL | % Inhibition of Platelet Aggregation ([2]; 3 hours post treatment, ADP, n = 10): 7.11% | platelet aggregation ([2]; Post treatment, 3 hours post treatment, ADP, n = 10): 62.00±12.81% | platelet aggregation ([2]; Pre treatment (baseline), ADP, n = 10): 66.50±11.00% | reduction of ADP induced platelet aggregation ([2]; earlier study, results in Table V): did not produce significant reduction | Glutathione ([3]; Post treatment, 12 weeks): 721.6 ± 116.9 µmol/L | MDA ([3]; Post treatment, 12 weeks): 2.13 ± 0.48 nmol/mL | NO ([3]; Post treatment, 12 weeks): 68.89 ± 11.54 µmol/L | Glutathione ([3]; Pre treatment): 530.8 ± 168.4 µmol/L | MDA ([3]; Pre treatment): 3.48 ± 0.73 nmol/mL | NO ([3]; Pre treatment): 42.24 ± 6.771 µmol/L | Mean % change in Glutathione ([3]; after 12 weeks of treatment): 51.77% and 51.77 ± 62.72% | Mean % change in MDA ([3]; after 12 weeks of treatment): −38.05% and −38.05 ± 10.43% | Mean % change in NO ([3]; after 12 weeks of treatment): 64.71% and 64.71 ± 27.25% | Absolute change in RI ([4]; 12 weeks): −8.35 ± 4.17% | RI(%), Mean ([4]; Post TT, 12 weeks): −11.03$ % | RI(%), Mean ([4]; Pre TT): −2.68% | Abs Change in RI(%) Post Salbutamol challenge ([5]; Post treatment, 12 weeks): −11.04% and −11.04 ± 5.48 % | Abs Change in RI(%) Post Salbutamol challenge ([5]; Pre treatment): −2.45% and −2.45 ± 0.64% | Mean % change in Abs Change in RI (%) Post Salbutamol challenge ([5]; after 12 weeks of treatment): 336.1 ± 235.2%
